According to ChEMBL document CHEMBL1201862, “PubChem BioAssay data set” (2004):
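Step 1: Grow cells in 96-well plates. Step 2: Expose to compound for 48 hours at 5 concentrations. Step 3: Interpolate endpoints linearly; if unreached, use highest concentration. Here, GI50 denotes the concentration required for 50% inhibition of growth.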 Active and inactive are the calls of the source. Cut-off read from the data, not from the text of the source: active = GI50 up to about 1.1 µM and inactive = higher.

What was measured:
Assay in all cases: growth of human tumour cells (NCI), 48 h
Malme-3M = test system: Malme-3M
MDA-N = test system: MDA-N
RPMI-8226 = test system: RPMI-8226
KM12 = test system: KM12
SK-MEL-28 = test system: SK-MEL-28
NCI-H460 = test system: NCI-H460
UO-31 = test system: UO-31
EKVX = test system: EKVX
HCC 2998 = test system: HCC 2998
SF-295 = test system: SF-295
PC-3 = test system: PC-3
UACC-62 = test system: UACC-62
COLO 205 = test system: COLO 205
SK-MEL-2 = test system: SK-MEL-2
SF-268 = test system: SF-268
HCT-116 = test system: HCT-116
MCF7 = test system: MCF7
K562 = test system: K562
MOLT-4 = test system: MOLT-4

SMILES	GI50 (Malme-3M)	GI50 (MDA-N)	GI50 (RPMI-8226)	GI50 (KM12)	GI50 (SK-MEL-28)	GI50 (NCI-H460)	GI50 (UO-31)	GI50 (EKVX)	GI50 (HCC 2998)	GI50 (SF-295)	GI50 (PC-3)	GI50 (UACC-62)	GI50 (COLO 205)	GI50 (SK-MEL-2)	GI50 (SF-268)	GI50 (HCT-116)	GI50 (MCF7)	GI50 (K562)	GI50 (MOLT-4)
CCNc1ccc2c(c1)C(=O)N(OS(C)(=O)=O)C2=O	30.3 µM (inactive)	89.7 µM (inactive)	31.9 µM (inactive)	> 100 µM (inactive)	57.5 µM (inactive)	> 100 µM (inactive)	62.5 µM (inactive)	62.7 µM (inactive)	> 100 µM (inactive)	> 100 µM (inactive)	> 100 µM (inactive)	> 100 µM (inactive)	42.7 µM (inactive)	65.6 µM (inactive)	> 100 µM (inactive)	36.5 µM (inactive)	33.6 µM (inactive)		
CCN(CC)CCCNc1nc2ccccc2[n+]([O-])n1	> 100 µM (inactive)	> 100 µM (inactive)	> 100 µM (inactive)	> 100 µM (inactive)	> 100 µM (inactive)	> 100 µM (inactive)	> 100 µM (inactive)		> 100 µM (inactive)	> 100 µM (inactive)	> 100 µM (inactive)	> 100 µM (inactive)	> 100 µM (inactive)	> 100 µM (inactive)	> 100 µM (inactive)	> 100 µM (inactive)	50.9 µM (inactive)	> 100 µM (inactive)	> 100 µM (inactive)
C[n+]1c(-c2ccc(/C=N/NC(=O)C(=O)N/N=C/c3ccc(-c4cn5ccccc5[n+]4C)cc3)cc2)cn2ccccc21	> 100 µM (inactive)	> 100 µM (inactive)	> 100 µM (inactive)	> 100 µM (inactive)		> 100 µM (inactive)	> 100 µM (inactive)	> 100 µM (inactive)	> 100 µM (inactive)		> 100 µM (inactive)	> 100 µM (inactive)	> 100 µM (inactive)	> 100 µM (inactive)			> 100 µM (inactive)	> 100 µM (inactive)	> 100 µM (inactive)
O=C1c2ccccc2-c2nc(-c3cccc([N+](=O)[O-])c3)nnc21	17.5 µM (inactive)	2.54 µM (inactive)	2.94 µM (inactive)	8 µM (inactive)		3.96 µM (inactive)	12.3 µM (inactive)	7.38 µM (inactive)		1.56 µM (inactive)	40.2 µM (inactive)	9.12 µM (inactive)	3.91 µM (inactive)	18.9 µM (inactive)	43.1 µM (inactive)	23.1 µM (inactive)	11.4 µM (inactive)	5.94 µM (inactive)	9.73 µM (inactive)
O=C1C=C(c2ccccc2)O/C1=C\C(=O)c1ccc(Cl)cc1	13.6 µM (inactive)	23.6 µM (inactive)	16.7 µM (inactive)	34.4 µM (inactive)	19.9 µM (inactive)	> 100 µM (inactive)	20.7 µM (inactive)	> 100 µM (inactive)	28.3 µM (inactive)		16.7 µM (inactive)	15.6 µM (inactive)	16.3 µM (inactive)		20 µM (inactive)	16.4 µM (inactive)	17.3 µM (inactive)	22.2 µM (inactive)	20.5 µM (inactive)
CCOC(=O)c1c(SCCN2CCCCC2)n(-c2ccccc2)c(=S)n(-c2ccccc2)c1=O	16.4 µM (inactive)	18.5 µM (inactive)	2.74 µM (inactive)	19 µM (inactive)	8.85 µM (inactive)	33.9 µM (inactive)	18.2 µM (inactive)		> 38.9 µM (inactive)	> 100 µM (inactive)	14.6 µM (inactive)	25.8 µM (inactive)	11.7 µM (inactive)	> 100 µM (inactive)	28.6 µM (inactive)	2.18 µM (inactive)	5.85 µM (inactive)	3 µM (inactive)	2.28 µM (inactive)
O=[N+]([O-])c1ccc(CSC2=C(c3ccc(Cl)cc3)S/C(=C3\SC(SCc4ccc([N+](=O)[O-])cc4)=C(c4ccc(Cl)cc4)S3)S2)cc1	> 100 µM (inactive)	> 100 µM (inactive)		> 100 µM (inactive)	> 100 µM (inactive)	> 100 µM (inactive)		> 100 µM (inactive)	> 100 µM (inactive)	> 100 µM (inactive)	> 100 µM (inactive)	> 100 µM (inactive)	> 100 µM (inactive)	> 100 µM (inactive)	> 100 µM (inactive)	> 100 µM (inactive)	> 100 µM (inactive)	> 100 µM (inactive)	> 100 µM (inactive)
CCCCCCCCCCCCCOCCOCCOCCCCC(O)CCCCCCCCCC1=C[C@H](C)OC1=O (stereo partly specified)		15 µM (inactive)	1.96 µM (inactive)	19.1 µM (inactive)	11.4 µM (inactive)	17.5 µM (inactive)	16 µM (inactive)		17 µM (inactive)	7.21 µM (inactive)	13.8 µM (inactive)	20 µM (inactive)	20.9 µM (inactive)	23 µM (inactive)	18.1 µM (inactive)	0.766 µM (active)	10.1 µM (inactive)	21.2 µM (inactive)	7.59 µM (inactive)
COC(=O)c1cc(C#Cc2cc(OC)ccc2OC)ccc1OC	44.3 µM (inactive)	30.3 µM (inactive)	13.9 µM (inactive)	43.9 µM (inactive)	> 100 µM (inactive)	56.8 µM (inactive)	40.1 µM (inactive)	40.9 µM (inactive)	> 100 µM (inactive)	< 0.01 µM (active)	40.7 µM (inactive)		24.5 µM (inactive)	43.5 µM (inactive)	75.7 µM (inactive)		36.5 µM (inactive)	< 0.01 µM (active)	19.3 µM (inactive)
O=C1OCCC12CN(Cc1ccccc1)N=N2 (stereo unspecified)	12.1 µM (inactive)	> 100 µM (inactive)	> 100 µM (inactive)	> 100 µM (inactive)	> 100 µM (inactive)	> 100 µM (inactive)	> 100 µM (inactive)		> 100 µM (inactive)	> 100 µM (inactive)	> 100 µM (inactive)	> 100 µM (inactive)	> 100 µM (inactive)	> 100 µM (inactive)	> 100 µM (inactive)	> 100 µM (inactive)	> 100 µM (inactive)	> 100 µM (inactive)	> 100 µM (inactive)
COc1cc(OC)c(-n2[nH]c(=O)n(C)c2=O)c(OC)c1	> 100 µM (inactive)	> 100 µM (inactive)	> 100 µM (inactive)	> 100 µM (inactive)	> 100 µM (inactive)	> 100 µM (inactive)	> 100 µM (inactive)	> 100 µM (inactive)	> 100 µM (inactive)		> 100 µM (inactive)	> 100 µM (inactive)	> 100 µM (inactive)	> 100 µM (inactive)	> 100 µM (inactive)	> 100 µM (inactive)	> 100 µM (inactive)	> 100 µM (inactive)	> 100 µM (inactive)
O=C1NC(Cc2c[nH]c3ccccc23)C(=O)N2C(C3CCCCC3)c3[nH]c4ccccc4c3C[C@@H]12 (stereo partly specified)	13.1 µM (inactive)	11.1 µM (inactive)	9.02 µM (inactive)	11.8 µM (inactive)	16.4 µM (inactive)		14.1 µM (inactive)	16 µM (inactive)		24 µM (inactive)	7.05 µM (inactive)	15.3 µM (inactive)	17.2 µM (inactive)	14.4 µM (inactive)	13.1 µM (inactive)	10.2 µM (inactive)	9.08 µM (inactive)	10.8 µM (inactive)	5.97 µM (inactive)
Cc1ncc([N+](=O)[O-])n1CCNCCCCn1ccnc1[N+](=O)[O-]	> 100 µM (inactive)	> 100 µM (inactive)	> 100 µM (inactive)	> 100 µM (inactive)	> 100 µM (inactive)	> 100 µM (inactive)	> 100 µM (inactive)	> 100 µM (inactive)		> 100 µM (inactive)	> 100 µM (inactive)	> 100 µM (inactive)	> 100 µM (inactive)	> 100 µM (inactive)	> 100 µM (inactive)	> 100 µM (inactive)	> 100 µM (inactive)	> 100 µM (inactive)	> 100 µM (inactive)
Cn1c(=O)c2[nH]c(Nc3cccc(Cl)c3)nc2n(C)c1=O	3.65 µM (inactive)	4.21 µM (inactive)	2.49 µM (inactive)	4.78 µM (inactive)	5.42 µM (inactive)			4.16 µM (inactive)	4.27 µM (inactive)	4.84 µM (inactive)	4.11 µM (inactive)	3.17 µM (inactive)	3.6 µM (inactive)		6.98 µM (inactive)		3.79 µM (inactive)	5.4 µM (inactive)	3.13 µM (inactive)
CC1(C)CCC[C@]2(C)[C@H]3[C@H](C#N)c4cc(O)c(O)cc4O[C@@]3(C)CC[C@@H]12		> 10 µM (inactive)	> 10 µM (inactive)	> 10 µM (inactive)	> 10 µM (inactive)	> 10 µM (inactive)	5.87 µM (inactive)	> 10 µM (inactive)	> 10 µM (inactive)	> 10 µM (inactive)	> 10 µM (inactive)		> 10 µM (inactive)	> 10 µM (inactive)	> 10 µM (inactive)		> 10 µM (inactive)	> 10 µM (inactive)	> 10 µM (inactive)
CC(Cn1c2c(c3cc(O)ccc31)CCc1ccc(O)cc1-2)N(C)C (stereo unspecified)	14.5 µM (inactive)	18.8 µM (inactive)	38.3 µM (inactive)	15.9 µM (inactive)		15.1 µM (inactive)	13.2 µM (inactive)	19.8 µM (inactive)		18.2 µM (inactive)	12.4 µM (inactive)	15.8 µM (inactive)		16.4 µM (inactive)	20.7 µM (inactive)	19.7 µM (inactive)	19.9 µM (inactive)	34.5 µM (inactive)	35.6 µM (inactive)
